What was measured:
[1] = Human Microsomal Metabolic Stability Assay; assay type: in vitro ADME; conditions: 0.5 μM test compound, 0.5 mg/mL microsomal protein, 45 min
Experimental: d) Human Microsomal Metabolic Stability Assay Protocol Summary Test compound (0.5 μM) was incubated with pooled liver microsomes. Test compound was incubated over the course of a 45 min experiment and the test compound was analysed by LC-MS/MS. Experimental Procedure Pooled human liver microsomes were purchased from a reputable commercial supplier, for example Corning Life Sciences. Microsomes (final protein concentration 0.5 mg/mL), 50 mM phosphate buffer pH7.4 and NADPH (final concentration=1 mM) were pre-incubated at 37° C. prior to the addition of test compound (final substrate concentration=0.5 μM; final DMSO concentration=0.25%) to initiate the reaction. The final incubation volume was 500 μL. A control incubation was included for each compound tested where 50 mM phosphate buffer pH7.4 was added instead of NADPH (minus NADPH). Two control compounds were included with each species. All incubations are performed singularly for each test compound. Each compound was incubated for 45 minutes and samples (50 μL) of incubate were taken at 0, 5, 15, 30 and 45 min. The control (minus NADPH) was sampled at 45 min only. The reactions were stopped by the addition of 100 μL acetonitrile containing internal standard to the sample. The terminated samples were centrifuged at 2,500 rpm for 20 min at 4° C. to precipitate the protein. Quantitative Analysis Following protein precipitation, the samples were analysed using generic LC-MS/MS conditions. Data Analysis From a plot of In peak area ratio (compound peak area/internal standard peak area) against time, the gradient of the line was determined. Subsequently, intrinsic clearance was calculated using the equations below, then converted to mL/min/g: Elimination rate constant (k)=(−gradient) Half life (t½) (min)=0.693+k Intrinsic Clearance (CLint) (μL/min/mg protein)=(V×0.693)+t1/2 where V=Incubation volume μL/mg microsomal protein.

PI4KIIIβ = PI4KIIIβ (Homo sapiens, UniProt Q9UBF8); assay: Residence Time Assay (Caliper conditioning assay and jump dilution); assay type: biochemical; conditions: jump dilution, 2 mM ATP, 1 μM Bodipy-PI
Experimental: Caliper Conditioning Assay
Compound dilutions were prepared in 100% DMSO using a 1 in 3 serial step dilution and a top concentration of 1 mM. A 200 nL stamp from a 12-point titration was transferred to a black 384-well Greiner assay plate ensuring a final DMSO concentration of 1% across the plate and a top final concentration of inhibitor of 10 μM in 20 μL final assay volume. To a well of a 384-well assay plate 10 μL of 2× Enzyme buffer was pre-incubated with compound for 1 h. Buffer without enzyme was used as 100%-inh control. 10 μL of 2× substrate solution was added to initiate the assay such that the final concentrations were 2 mM ATP and 1 μM Bodipy-PI and the plate was incubated at 25° C. for 3 hours. The enzymatic reaction was terminated by adding 40 μL of stop buffer and Substrate (PI) and product (PIP) present in each sample were separated electrophoretically using a LabChip 3000 capillary electrophoresis instrument CALIPER LABCHIP 3000 Drug Discovery System and detected using blue laser (480 nm) for excitation and green CCD (520 nm) for detection (CCD2). Negative control samples (0%-inhibition in the absence of inhibitor) and positive control samples (100%-inhibition, in the absence of enzyme) were assembled in replicates of 48 (4 replicates per caliper sipper) and were used to calculate %-inhibition values in each test well. Percent inhibition (Pinh) was determined using following equation: Pinh=(PSRO %−PSRinh)/(PSRO %−PSR100%)×100
Where PSRinh is the product sum ratio in the presence of inhibitor, PSRO % is the average product sum ratio in the absence of inhibitor and PSR100% is the average product sum ratio in 100%-inhibition control samples; the IC50 values of inhibitors are determined by fitting the inhibition curves (Pinh versus inhibitor concentration) to the 4 parameter sigmoid dose-response model using XLfit 4 software (IBDS).
In a small Eppendorf tube, 5 μL of 2× enzyme solution (0.4 μM-0.8 μM) was mixed with 5 μL 2× compound solution containing 40 to 120-fold the IC50 value determined at 2 mM ATP as described above, and incubated for 1 h at room temperature. The assay was initiated by rapidly mixing 2 μL of the enzyme preincubation mixture with 800 μL substrate mix containing 2 mM ATP and 1 μM Bodipy-PI. 60 μL of each sample was transferred into low volume Greiner 384-well plate, and the Substrate (PI) and product (PIP) present in each sample were separated electrophoretically using a LabChip 3000 capillary electrophoresis instrument CALIPER LABCHIP 3000 Drug Discovery System and detected using blue laser (480 nm) for excitation and green CCD (520 nm) for detection (CCD2) for approximately 8 h (200 measurements from each well). […]

[2] = Spleen Concentration Assay; assay type: in vivo; conditions: male, Wistar Han, rat, intravenous, 1 mg/kg, intravenous infusion 1 mg/kg over 1 h, single male Wistar Han rat, 12 hours after the start of dosing
Experimental: e) Spleen Concentration Assay Compounds 17, 18, 19, 22 and 23 were tested in this spleen accumulation assay. Compounds were administered intravenously to rats to determine what the level of the compound in the spleen would be if all of the inhaled dose was absorbed (either orally or through the lungs) and systemic circulation was exposed to the full dose. Compounds 17, 19, 22 and 23 were formulated in 2% DMSO in Kleptose (aq, 10% w/v). Compound 18 was formulated in a 5:45:50 ratio of DMSO:PEG200:water. Formulations were administered as intravenous infusions (1 mg/kg over 1 h) to a single male, Wistar Han rat. 12 hours after the start of dosing, rats were euthanised and spleens were collected. Approximately 0.5 g samples of spleen were taken and homogenised in 4 mL water. 100 μL of the resulting homogenates were prepared by protein precipitation with 300 μL of acetonitrile containing an internal standard and assayed (along with calibration standards prepared in the same manner) by reversed-phase liquid chromatography-mass spectrometry, using a heated electrospray source and operated in the positive ion multiple reaction monitoring mode. The liquid chromatography column used was a Waters Cortecs C18 2.7 μm particle size, 50×2.1 mm column at 60° C., and the mobile phase, operated as a gradient, utilised (A) 0.1% formic acid (aq) and (B) 0.1% formic acid in acetonitrile, operated at a flow rate of 1 mL/min.

PI4KIIIβ, sequence (Q9UBF8 whole entry): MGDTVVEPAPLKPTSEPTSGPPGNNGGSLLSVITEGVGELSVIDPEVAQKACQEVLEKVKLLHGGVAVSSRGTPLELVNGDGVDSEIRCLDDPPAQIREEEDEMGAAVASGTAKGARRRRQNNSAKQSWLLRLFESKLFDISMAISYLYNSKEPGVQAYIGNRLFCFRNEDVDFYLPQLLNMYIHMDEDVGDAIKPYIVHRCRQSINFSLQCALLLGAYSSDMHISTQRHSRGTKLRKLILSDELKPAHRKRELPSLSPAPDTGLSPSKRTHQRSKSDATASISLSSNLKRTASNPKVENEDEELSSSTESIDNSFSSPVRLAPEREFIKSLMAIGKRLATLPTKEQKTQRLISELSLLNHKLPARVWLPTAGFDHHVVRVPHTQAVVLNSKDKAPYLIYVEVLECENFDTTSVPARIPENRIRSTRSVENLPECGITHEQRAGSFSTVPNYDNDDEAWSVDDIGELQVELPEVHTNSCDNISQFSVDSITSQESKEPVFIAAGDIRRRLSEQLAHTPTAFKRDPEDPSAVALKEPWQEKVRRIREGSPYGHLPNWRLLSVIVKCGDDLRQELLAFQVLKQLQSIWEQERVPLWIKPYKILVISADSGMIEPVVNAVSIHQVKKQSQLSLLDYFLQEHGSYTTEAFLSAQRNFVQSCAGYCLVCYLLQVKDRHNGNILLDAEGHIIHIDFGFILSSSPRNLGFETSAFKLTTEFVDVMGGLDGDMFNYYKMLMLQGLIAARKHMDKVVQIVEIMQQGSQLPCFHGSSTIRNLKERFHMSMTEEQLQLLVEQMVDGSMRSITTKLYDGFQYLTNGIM

| intrinsic clearance [1] [mL/min/g] | residence time (PI4KIIIβ) [min] | concentration at 12 h [2] [ng/g] | SMILES |
| --- | --- | --- | --- |
| 34.0 | 528 |  | COc1ccc(-c2c(C)nn3c(NCc4cccc(-c5nccn5C)c4)cc(C(C)(C)O)nc23)cc1C(=O)N(C)C1CCOCC1 [Compound 21, 5-(5-(2-Hydroxypropan-2-yl)-2-methyl-7-((3-(1-methyl-1H-imidazol-2-yl)benzyl)amino)pyrazolo[1,5-a]pyrimidin-3-yl)-2-methoxy-N-methyl-N-(tetrahydro-2H-pyran-4-yl)benzamide] |
| 33.7 | 1670 | < 7 | Cc1ccc(-c2c(C)nn3c(NCc4cccc(-c5nccn5C)c4)cc(C(C)(C)O)nc23)cc1C(=O)N(C)[C@@H](C)CO [Compound 22, (S)—N-(1-hydroxypropan-2-yl)-5-(5-(2-hydroxypropan-2-yl)-2-methyl-7-((3-(1-methyl-1H-imidazol-2-yl)benzyl)amino)pyrazolo[1,5-a]pyrimidin-3-yl)-N,2-dimethylbenzamide] |
| 11.6 | 997 | < 7 | CCN(CCO)C(=O)c1cc(-c2c(C)nn3c(NCc4cccc(-c5nccn5C)c4)cc(C(C)(C)O)nc23)ccc1OC [Compound 19, N-ethyl-N-(2-hydroxyethyl)-5-(5-(2-hydroxypropan-2-yl)-2-methyl-7-((3-(1-methyl-1H-imidazol-2-yl)benzyl)amino)pyrazolo[1,5-a]pyrimidin-3-yl)-2-methoxybenzamide] |
| 28.9 | 542 |  | Cc1ccc(-c2c(C)nn3c(NCc4cccc(-c5nccn5C)c4)cc(C(C)(C)O)nc23)cc1C(=O)N(C)CCCO [Compound 17, 5-(5-(2-Hydroxypropan-2-yl)-2-methyl-7-((3-(1-methyl-1H-imidazol-2-yl)benzyl)amino)pyrazolo[1,5-a]pyrimidin-3-yl)-N-(3-hydroxypropyl)-N,2-dimethylbenzamide] |
